The assay concerns HOP-62 multicell spheroids with HUVEC/MSC, viability. Kind of assay: Anticancer human tumor HOP-62 cell line growth inhibition [KRAS2].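 For all read-outs here: viability read after a week of compound exposure.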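 For viability, T/C: 100% = DMSO vehicle-treated spheroids.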 The note with it: for viability, T/C: stronger effect = lower value. An outline of the steps:
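KRAS-mutant tumor cells were grown as spheroids with HUVEC endothelial cells and human MSCs as stroma. Targeted agents were tested alone and with KRAS pathway inhibitors. Doses started at or near clinical Cmax, or 10 microM, descending half-log.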

Molecules are shown by their SMILES. “And” between values parts separate entries of the source, which are not always exact repeats. Identical values can stand only once.

In general, IC50 refers to the concentration that inhibits the measured activity by half. In general, viability, T/C refers to the result in the treated group divided by that in the control group, in per cent. For the compound `COC(=O)c1ccc2c(C(=Nc3ccc(N(C)C(=O)CN4CCN(C)CC4)cc3)c3ccccc3)c(O)[nH]c2c1` + CNCc1ccccc1-c1csc(C(C)Nc2nc(C)nc3cc(OC)c(OC)cc23)c1, the IC50 reads like this: (curve of first compound, second compound 0.1 µM) 246 nM; (curve of first compound, second compound 0.316 µM) 49.3 nM; (curve of first compound, second compound 1 µM) less than 31.6 nM; (curve of first compound, second compound 3.16 µM) less than 31.6 nM; (curve of first compound, second compound 10 µM) less than 31.6 nM. For the same compound, the viability, T/C (second compound 0.1 µM, first compound 0.0316 µM) is 68.1%; the viability, T/C (second compound 0.1 µM, first compound 0.1 µM) was 64.7%; the viability, T/C (second compound 0.1 µM, first compound 0.316 µM) was 40.1%; the viability, T/C (second compound 0.1 µM, first compound 1 µM) was 34.6%; the viability, T/C (second compound 0.1 µM, first compound 3.16 µM) was 29.5%; the viability, T/C (second compound 0.1 µM, first compound 10 µM) was 5.99%. The viability, T/C reads like this: (second compound 0.316 µM, first compound 0.0316 µM) 48.3%; (second compound 0.316 µM, first compound 0.1 µM) 54.6%; (second compound 0.316 µM, first compound 0.316 µM) 35.6%; (second compound 0.316 µM, first compound 1 µM) 31.4%; (second compound 0.316 µM, first compound 3.16 µM) 16.1%; (second compound 0.316 µM, first compound 10 µM) 3.78%. Besides, the viability, T/C is 43% (second compound 1 µM, first compound 0.0316 µM); 32.2% (second compound 1 µM, first compound 0.1 µM); 38.6% (second compound 1 µM, first compound 0.316 µM); 29.8% (second compound 1 µM, first compound 1 µM); 0.17% (second compound 1 µM, first compound 3.16 µM); 0.9% (second compound 1 µM, first compound 10 µM). Further, the viability, T/C was 12.6% (second compound 3.16 µM, first compound 0.0316 µM); 0.12% (second compound 3.16 µM, first compound 0.1 µM); 0.09% (second compound 3.16 µM, first compound 0.316 µM); 0.09% (second compound 3.16 µM, first compound 1 µM); 0.07% (second compound 3.16 µM, first compound 3.16 µM); 0.1% (second compound 3.16 µM, first compound 10 µM). Further, the viability, T/C reads like this: (second compound 10 µM, first compound 0.0316 µM) 0.12%; (second compound 10 µM, first compound 0.1 µM) 0.16%; (second compound 10 µM, first compound 0.316 µM) 45.8%; (second compound 10 µM, first compound 1 µM) 0.09%; (second compound 10 µM, first compound 3.16 µM) 0.08%; (second compound 10 µM, first compound 10 µM) 0.35%.
In the case of `CC(=O)OC12COC1CC(O)C1(C)C(=O)C(O)C3=C(C)C(OC(=O)C(O)C(NC(=O)OC(C)(C)C)c4ccccc4)CC(O)(C(OC(=O)c4ccccc4)C21)C3(C)C` (configuration not stated), the viability, T/C reads like this: (compound 0.01 µM) 41% [middle of 5 runs]; (compound 0.0316 µM) 36.9% [middle of 5 runs]; (compound 0.1 µM) 36.1% [middle of 5 runs]; (compound 0.316 µM) 39.6% [middle of 5 runs]; (compound 1 µM) 42% [middle of 5 runs]; (compound 3.16 µM) 42.9% [middle of 5 runs]. The IC50 (curve of compound) was less than 10 nM.
Turning to `COc1cc(Nc2ncc3c(n2)-c2ccc(Cl)cc2C(c2c(F)cccc2OC)=NC3)ccc1C(=O)O`, the viability, T/C is, setting by setting: (compound 0.316 µM) 51% [middle of 5 runs]; (compound 1 µM) 42.8% [middle of 5 runs]; (compound 3.16 µM) 33.8% [middle of 5 runs]; (compound 10 µM) 20.9% [middle of 5 runs].
Regarding `COc1cc2nc(C)nc(NC(C)c3cc(N)cc(C(F)(F)F)c3)c2cc1OC1CCOC1` (configuration not stated), where the note is “compound alone, run of 07/12/2021”, the IC50 was > 10000 nM and 9670 nM.
